pIC50: −log10 of the molar value.
Legend:
[1] = molecular target: Sodium channel protein type 10 subunit alpha (Mus musculus, UniProt Q6QIY3); assay: Inhibition of mouse recombinant Nav 1.8 channel expressed in HEK293 cells by isotopic efflux assay; type: cell-based
[2] = Activity at rat dorsal root ganglion in inactivated state with prepulse voltage of -40 mV assessed as blockade of TTx-resistant sodium current at 1 uM by whole-cell patch clamp technique; type: functional
[3] = Activity at rat dorsal root ganglion in inactivated state with prepulse voltage of -40 mV assessed as blockade of TTx-resistant sodium current at 10 uM by whole-cell patch clamp technique; type: functional
[4] = Activity at rat dorsal root ganglion in resting state with prepulse voltage of -100 mV assessed as blockade of TTx-resistant sodium current at 1 uM by whole-cell patch clamp technique; type: functional
[5] = Activity at rat dorsal root ganglion in resting state with prepulse voltage of -100 mV assessed as blockade of TTx-resistant sodium current at 10 uM by whole-cell patch clamp technique; type: functional
[6] = molecular target: T1, Sodium channel protein type 10 subunit alpha (Homo sapiens, UniProt Q9Y5Y9); assay: Activity at human recombinant Nav 1.8 channel expressed in HEK293 cells in inactivated state with prepulse voltage of -40 mV assessed as blockade of TTx-resistant sodium current at 1 uM; type: cell-based
T1 sequence (Q9Y5Y9 whole entry, looked up): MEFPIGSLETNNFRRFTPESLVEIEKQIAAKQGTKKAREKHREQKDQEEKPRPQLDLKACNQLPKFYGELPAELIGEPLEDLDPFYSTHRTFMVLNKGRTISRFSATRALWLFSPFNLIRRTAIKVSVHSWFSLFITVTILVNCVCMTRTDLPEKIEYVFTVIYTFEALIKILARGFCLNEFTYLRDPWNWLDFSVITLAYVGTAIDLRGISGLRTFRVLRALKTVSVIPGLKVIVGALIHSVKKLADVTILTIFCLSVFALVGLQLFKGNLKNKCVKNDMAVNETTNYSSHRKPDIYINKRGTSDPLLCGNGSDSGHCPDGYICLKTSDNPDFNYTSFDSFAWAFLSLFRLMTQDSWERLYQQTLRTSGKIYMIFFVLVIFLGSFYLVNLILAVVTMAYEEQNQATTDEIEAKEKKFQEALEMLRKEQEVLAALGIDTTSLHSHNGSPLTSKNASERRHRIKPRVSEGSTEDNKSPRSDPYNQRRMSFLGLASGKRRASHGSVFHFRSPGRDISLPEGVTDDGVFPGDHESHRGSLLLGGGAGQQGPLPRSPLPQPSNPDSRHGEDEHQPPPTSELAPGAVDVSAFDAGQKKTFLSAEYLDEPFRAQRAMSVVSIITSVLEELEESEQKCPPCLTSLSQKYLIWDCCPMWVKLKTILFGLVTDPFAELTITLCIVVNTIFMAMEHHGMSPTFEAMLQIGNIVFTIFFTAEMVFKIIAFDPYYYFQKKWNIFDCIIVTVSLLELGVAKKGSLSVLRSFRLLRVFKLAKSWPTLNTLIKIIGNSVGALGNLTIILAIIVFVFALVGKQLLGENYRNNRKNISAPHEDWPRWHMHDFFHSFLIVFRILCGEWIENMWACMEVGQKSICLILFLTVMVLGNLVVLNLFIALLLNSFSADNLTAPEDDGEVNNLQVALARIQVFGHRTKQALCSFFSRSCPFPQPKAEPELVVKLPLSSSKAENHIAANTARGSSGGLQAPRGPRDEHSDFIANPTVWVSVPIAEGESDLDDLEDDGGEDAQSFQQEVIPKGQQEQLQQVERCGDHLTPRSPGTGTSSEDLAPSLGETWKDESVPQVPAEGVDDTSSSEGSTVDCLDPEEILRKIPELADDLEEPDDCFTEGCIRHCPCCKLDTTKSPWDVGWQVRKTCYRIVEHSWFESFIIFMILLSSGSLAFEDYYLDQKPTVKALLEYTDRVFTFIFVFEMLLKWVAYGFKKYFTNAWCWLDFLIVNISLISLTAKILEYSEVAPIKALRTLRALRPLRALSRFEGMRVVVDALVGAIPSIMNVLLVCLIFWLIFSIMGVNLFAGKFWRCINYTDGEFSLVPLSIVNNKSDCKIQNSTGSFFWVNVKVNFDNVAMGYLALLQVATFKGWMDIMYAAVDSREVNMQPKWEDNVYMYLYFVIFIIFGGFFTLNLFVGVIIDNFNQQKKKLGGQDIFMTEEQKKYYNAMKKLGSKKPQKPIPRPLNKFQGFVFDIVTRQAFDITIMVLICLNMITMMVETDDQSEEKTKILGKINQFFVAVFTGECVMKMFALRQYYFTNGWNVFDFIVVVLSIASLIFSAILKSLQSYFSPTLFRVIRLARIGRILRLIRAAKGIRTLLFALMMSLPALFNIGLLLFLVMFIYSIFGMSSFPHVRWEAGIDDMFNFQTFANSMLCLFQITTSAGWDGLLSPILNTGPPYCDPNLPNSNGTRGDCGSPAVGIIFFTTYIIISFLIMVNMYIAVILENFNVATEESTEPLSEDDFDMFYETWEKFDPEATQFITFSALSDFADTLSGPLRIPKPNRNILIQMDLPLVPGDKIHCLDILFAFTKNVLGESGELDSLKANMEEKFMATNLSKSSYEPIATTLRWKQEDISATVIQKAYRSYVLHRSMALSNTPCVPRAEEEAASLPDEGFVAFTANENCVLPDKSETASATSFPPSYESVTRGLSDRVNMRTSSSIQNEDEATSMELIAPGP

[7] = molecular target: T1, Sodium channel protein type 10 subunit alpha; assay: Activity at human recombinant Nav 1.8 channel expressed in HEK293 cells in inactivated state with prepulse voltage of -40 mV assessed as blockade of TTx-resistant sodium current at 3 uM; type: cell-based
[8] = molecular target: T1, Sodium channel protein type 10 subunit alpha; assay: Activity at human recombinant Nav 1.8 channel expressed in HEK293 cells in resting state with prepulse voltage of -100 mV assessed as blockade of TTx-resistant sodium current at 1 uM; type: cell-based
[9] = molecular target: T1, Sodium channel protein type 10 subunit alpha; assay: Activity at human recombinant Nav 1.8 channel expressed in HEK293 cells in resting state with prepulse voltage of -100 mV assessed as blockade of TTx-resistant sodium current at 3 uM; type: cell-based
[10] = molecular target: T1, Sodium channel protein type 10 subunit alpha; assay: Inhibition of human recombinant Nav 1.8 channel expressed in HEK293 cells at 1 uM; type: cell-based
[11] = molecular target: T1, Sodium channel protein type 10 subunit alpha; assay: Inhibition of human recombinant Nav 1.8 channel expressed in HEK293 cells at 3 uM; type: cell-based
[12] = molecular target: Sodium channel protein type 2 subunit alpha (Homo sapiens) (UniProt Q99250); assay: Inhibition of human Nav1.2 channel at 1 uM
Sequence of Sodium channel protein type 2 subunit alpha (Homo sapiens) (Q99250 whole entry, looked up): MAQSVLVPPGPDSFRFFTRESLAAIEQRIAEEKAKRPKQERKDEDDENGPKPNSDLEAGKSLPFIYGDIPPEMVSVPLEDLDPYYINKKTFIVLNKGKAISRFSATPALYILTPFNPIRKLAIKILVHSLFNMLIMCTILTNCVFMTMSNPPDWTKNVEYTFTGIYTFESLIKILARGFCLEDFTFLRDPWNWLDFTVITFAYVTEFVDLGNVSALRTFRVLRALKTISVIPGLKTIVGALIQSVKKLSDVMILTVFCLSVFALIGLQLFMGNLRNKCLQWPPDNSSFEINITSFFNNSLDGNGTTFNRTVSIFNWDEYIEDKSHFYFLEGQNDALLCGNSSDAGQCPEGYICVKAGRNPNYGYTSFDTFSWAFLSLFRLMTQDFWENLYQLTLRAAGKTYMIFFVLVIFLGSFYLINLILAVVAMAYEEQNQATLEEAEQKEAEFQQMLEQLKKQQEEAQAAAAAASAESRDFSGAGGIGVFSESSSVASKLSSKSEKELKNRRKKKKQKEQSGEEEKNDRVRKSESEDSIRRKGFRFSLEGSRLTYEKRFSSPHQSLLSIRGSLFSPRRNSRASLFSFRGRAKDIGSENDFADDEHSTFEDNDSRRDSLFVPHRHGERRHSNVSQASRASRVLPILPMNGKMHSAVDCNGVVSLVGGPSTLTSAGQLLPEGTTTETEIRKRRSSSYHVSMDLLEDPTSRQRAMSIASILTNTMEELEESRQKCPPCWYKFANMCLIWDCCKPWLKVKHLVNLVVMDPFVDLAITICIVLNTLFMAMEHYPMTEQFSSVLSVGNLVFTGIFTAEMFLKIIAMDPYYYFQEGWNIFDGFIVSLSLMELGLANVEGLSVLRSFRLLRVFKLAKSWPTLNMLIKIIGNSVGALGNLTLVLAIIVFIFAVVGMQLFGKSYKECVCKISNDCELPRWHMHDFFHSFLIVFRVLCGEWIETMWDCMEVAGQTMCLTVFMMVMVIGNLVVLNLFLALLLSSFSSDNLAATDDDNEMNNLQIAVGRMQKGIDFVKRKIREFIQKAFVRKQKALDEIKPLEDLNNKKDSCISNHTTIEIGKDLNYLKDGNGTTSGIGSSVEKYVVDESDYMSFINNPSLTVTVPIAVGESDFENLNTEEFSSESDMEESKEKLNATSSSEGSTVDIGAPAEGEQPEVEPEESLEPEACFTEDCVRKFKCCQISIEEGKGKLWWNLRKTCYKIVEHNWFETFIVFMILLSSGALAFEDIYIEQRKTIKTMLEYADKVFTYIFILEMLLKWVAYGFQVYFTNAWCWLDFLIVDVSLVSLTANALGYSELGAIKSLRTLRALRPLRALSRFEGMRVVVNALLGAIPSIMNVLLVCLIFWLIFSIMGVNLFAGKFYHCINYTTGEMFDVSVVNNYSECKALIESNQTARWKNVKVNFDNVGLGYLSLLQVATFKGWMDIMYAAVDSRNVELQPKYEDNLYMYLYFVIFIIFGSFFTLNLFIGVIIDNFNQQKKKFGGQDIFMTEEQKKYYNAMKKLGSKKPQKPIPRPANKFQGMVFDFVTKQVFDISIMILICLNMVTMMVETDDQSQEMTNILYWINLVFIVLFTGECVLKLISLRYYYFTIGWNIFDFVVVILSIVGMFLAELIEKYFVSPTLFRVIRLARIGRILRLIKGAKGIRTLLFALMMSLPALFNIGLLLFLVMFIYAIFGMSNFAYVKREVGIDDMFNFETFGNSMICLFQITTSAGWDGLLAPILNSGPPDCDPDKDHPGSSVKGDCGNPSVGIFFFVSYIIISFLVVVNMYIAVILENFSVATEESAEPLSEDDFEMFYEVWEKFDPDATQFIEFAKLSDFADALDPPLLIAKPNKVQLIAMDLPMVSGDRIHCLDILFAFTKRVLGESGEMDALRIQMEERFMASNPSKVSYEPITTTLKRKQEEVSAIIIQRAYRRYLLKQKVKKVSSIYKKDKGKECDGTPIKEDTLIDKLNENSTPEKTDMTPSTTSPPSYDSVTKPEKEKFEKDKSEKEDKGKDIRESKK

[13] = molecular target: Sodium channel protein type 3 subunit alpha (Homo sapiens) (UniProt Q9NY46); assay: Inhibition of human Nav1.3 channel at 1 uM
[14] = molecular target: T2, Nav1.5 (sodium channel protein type 5 subunit alpha) (Homo sapiens, UniProt Q14524); assay: Inhibition of human Nav1.5 channel at 1 uM; details: human
[15] = molecular target: Voltage-gated inwardly rectifying potassium channel KCNH2 (Homo sapiens, UniProt Q12809); assay: Inhibition of hERG potassium channel expressed in CHO cells by isotope efflux assay
Sequence of Voltage-gated inwardly rectifying potassium channel KCNH2 (Q12809 whole entry): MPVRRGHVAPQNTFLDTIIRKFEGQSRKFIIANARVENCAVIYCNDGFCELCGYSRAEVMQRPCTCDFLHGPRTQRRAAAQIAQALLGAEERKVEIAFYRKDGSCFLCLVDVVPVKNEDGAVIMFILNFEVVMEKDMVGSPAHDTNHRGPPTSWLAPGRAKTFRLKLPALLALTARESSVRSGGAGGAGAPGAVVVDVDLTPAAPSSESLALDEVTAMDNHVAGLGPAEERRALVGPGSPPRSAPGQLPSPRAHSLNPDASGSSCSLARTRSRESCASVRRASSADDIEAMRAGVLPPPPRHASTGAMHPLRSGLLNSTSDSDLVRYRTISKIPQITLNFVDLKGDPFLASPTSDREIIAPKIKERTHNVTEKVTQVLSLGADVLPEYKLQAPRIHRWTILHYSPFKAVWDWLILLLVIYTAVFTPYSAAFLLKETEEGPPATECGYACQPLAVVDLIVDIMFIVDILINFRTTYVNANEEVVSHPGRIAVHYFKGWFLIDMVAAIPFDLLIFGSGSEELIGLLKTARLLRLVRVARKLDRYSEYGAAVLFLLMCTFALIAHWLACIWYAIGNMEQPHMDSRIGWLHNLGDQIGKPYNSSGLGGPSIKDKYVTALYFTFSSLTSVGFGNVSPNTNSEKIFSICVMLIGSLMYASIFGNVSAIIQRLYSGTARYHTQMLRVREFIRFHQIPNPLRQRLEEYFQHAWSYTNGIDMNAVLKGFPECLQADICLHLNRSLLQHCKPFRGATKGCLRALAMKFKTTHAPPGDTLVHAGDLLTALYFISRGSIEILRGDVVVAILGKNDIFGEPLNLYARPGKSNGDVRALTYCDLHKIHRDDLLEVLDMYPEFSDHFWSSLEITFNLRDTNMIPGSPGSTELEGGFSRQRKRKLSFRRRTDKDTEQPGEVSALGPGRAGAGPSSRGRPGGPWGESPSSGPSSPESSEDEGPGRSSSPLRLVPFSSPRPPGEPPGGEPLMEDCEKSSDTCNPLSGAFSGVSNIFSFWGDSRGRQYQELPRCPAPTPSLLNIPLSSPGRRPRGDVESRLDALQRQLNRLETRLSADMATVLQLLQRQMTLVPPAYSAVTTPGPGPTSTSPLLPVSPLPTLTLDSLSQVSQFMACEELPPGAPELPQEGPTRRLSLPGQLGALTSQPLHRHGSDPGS

[16] = Activity at rat dorsal root ganglion in inactivated state with prepulse voltage of -40 mV assessed as blockade of TTx-resistant sodium current at 0.3 uM by whole-cell patch clamp technique; type: functional
[17] = Activity at rat dorsal root ganglion in inactivated state with prepulse voltage of -40 mV assessed as blockade of TTx-resistant sodium current at 0.1 uM by whole-cell patch clamp technique; type: functional
[18] = Activity at rat dorsal root ganglion in resting state with prepulse voltage of -100 mV assessed as blockade of TTx-resistant sodium current at 0.3 uM by whole-cell patch clamp technique; type: functional
[19] = Activity at rat dorsal root ganglion in resting state with prepulse voltage of -100 mV assessed as blockade of TTx-resistant sodium current at 0.1 uM by whole-cell patch clamp technique; type: functional
[20] = molecular target: T1, Sodium channel protein type 10 subunit alpha; assay: Activity at human recombinant Nav 1.8 channel expressed in HEK293 cells in inactivated state with prepulse voltage of -40 mV assessed as blockade of TTx-resistant sodium current at 0.003 uM; type: cell-based
[21] = molecular target: T1, Sodium channel protein type 10 subunit alpha; assay: Activity at human recombinant Nav 1.8 channel expressed in HEK293 cells in inactivated state with prepulse voltage of -40 mV assessed as blockade of TTx-resistant sodium current at 0.001 uM; type: cell-based
[22] = molecular target: T1, Sodium channel protein type 10 subunit alpha; assay: Activity at human recombinant Nav 1.8 channel expressed in HEK293 cells in resting state with prepulse voltage of -100 mV assessed as blockade of TTx-resistant sodium current at 0.003 uM; type: cell-based
[23] = molecular target: T1, Sodium channel protein type 10 subunit alpha; assay: Activity at human recombinant Nav 1.8 channel expressed in HEK293 cells in resting state with prepulse voltage of -100 mV assessed as blockade of TTx-resistant sodium current at 0.001 uM; type: cell-based
[24] = molecular target: T1, Sodium channel protein type 10 subunit alpha; assay: Inhibition of human recombinant Nav 1.8 channel expressed in HEK293 cells at 0.003 uM; type: cell-based
[25] = molecular target: Sodium channel protein type 2 subunit alpha (Homo sapiens) (UniProt Q99250); assay: Inhibition of human Nav1.2 channel at 0.1 uM
[26] = molecular target: T2, Nav1.5 (sodium channel protein type 5 subunit alpha); assay: Inhibition of human Nav1.5 channel at 0.1 uM
[27] = Activity at rat dorsal root ganglion in inactivated state with prepulse voltage of -40 mV assessed as blockade of TTx-resistant sodium current at 0.03 uM by whole-cell patch clamp technique; type: functional
[28] = Activity at rat dorsal root ganglion in inactivated state with prepulse voltage of -40 mV assessed as blockade of TTx-resistant sodium current at 0.003 uM by whole-cell patch clamp technique; type: functional
[29] = Activity at rat dorsal root ganglion in resting state with prepulse voltage of -100 mV assessed as blockade of TTx-resistant sodium current at 0.03 uM by whole-cell patch clamp technique; type: functional
[30] = Activity at rat dorsal root ganglion in resting state with prepulse voltage of -100 mV assessed as blockade of TTx-resistant sodium current at 0.003 uM by whole-cell patch clamp technique; type: functional
[31] = molecular target: T1, Sodium channel protein type 10 subunit alpha; assay: Activity at human recombinant Nav 1.8 channel expressed in HEK293 cells in inactivated state with prepulse voltage of -40 mV assessed as blockade of TTx-resistant sodium current at 0.03 uM; type: cell-based
[32] = molecular target: T1, Sodium channel protein type 10 subunit alpha; assay: Activity at human recombinant Nav 1.8 channel expressed in HEK293 cells in resting state with prepulse voltage of -100 mV assessed as blockade of TTx-resistant sodium current at 0.03 uM; type: cell-based
[33] = molecular target: T1, Sodium channel protein type 10 subunit alpha; assay: Inhibition of human recombinant Nav 1.8 channel expressed in HEK293 cells at 0.03 uM; type: cell-based
[34] = molecular target: T1, Sodium channel protein type 10 subunit alpha; assay: Inhibition of human recombinant Nav 1.8 channel expressed in HEK293 cells at 0.001 uM; type: cell-based
[35] = molecular target: Sodium channel protein type 2 subunit alpha (Homo sapiens) (UniProt Q99250); assay: Inhibition of human Nav1.2 channel at 0.3 uM
[36] = molecular target: Sodium channel protein type 2 subunit alpha (Homo sapiens) (UniProt Q99250); assay: Inhibition of human Nav1.2 channel at 0.03 uM
[37] = molecular target: Sodium channel protein type 3 subunit alpha (Homo sapiens) (UniProt Q9NY46); assay: Inhibition of human Nav1.3 channel at 0.3 uM
[38] = molecular target: T2, Nav1.5 (sodium channel protein type 5 subunit alpha); assay: Inhibition of human Nav1.5 channel at 0.3 uM
[39] = molecular target: T2, Nav1.5 (sodium channel protein type 5 subunit alpha); assay: Inhibition of human Nav1.5 channel at 0.03 uM
[40] = molecular target: Sodium channel protein type 9 subunit alpha (Homo sapiens) (UniProt Q15858); assay: Inhibition of human Nav1.7 channel at 0.3 uM
[41] = Aqueous solubility of the compound; type: physicochemical
[42] = molecular target: T1, Sodium channel protein type 10 subunit alpha; assay: Activity at human recombinant Nav 1.8 channel expressed in HEK293 cells in inactivated state with prepulse voltage of -40 mV assessed as blockade of TTx-resistant sodium current at 0.1 uM; type: cell-based
[43] = molecular target: T1, Sodium channel protein type 10 subunit alpha; assay: Activity at human recombinant Nav 1.8 channel expressed in HEK293 cells in resting state with prepulse voltage of -100 mV assessed as blockade of TTx-resistant sodium current at 0.1 uM; type: cell-based
[44] = molecular target: T1, Sodium channel protein type 10 subunit alpha; assay: Inhibition of human recombinant Nav 1.8 channel expressed in HEK293 cells at 0.1 uM; type: cell-based
[45] = molecular target: Sodium channel protein type 2 subunit alpha (Homo sapiens) (UniProt Q99250); assay: Inhibition of human Nav1.2 channel at 3 uM
[46] = molecular target: Sodium channel protein type 3 subunit alpha (Homo sapiens) (UniProt Q9NY46); assay: Inhibition of human Nav1.3 channel at 3 uM
[47] = molecular target: T2, Nav1.5 (sodium channel protein type 5 subunit alpha); assay: Inhibition of human Nav1.5 channel at 3 uM
[48] = molecular target: Sodium channel protein type 9 subunit alpha (Homo sapiens) (UniProt Q15858); assay: Inhibition of human Nav1.7 channel at 3 uM

O=C(Nc1ccc2ncccc2c1)c1ccc(-c2ccc(Cl)cc2)o1
pIC50 [1]: 5.00

Cc1cccc(N(C)C(=O)c2ccc(-c3ccc(Cl)cc3)o2)c1
pIC50 [1]: 5.47

CN1CCc2ccc(NC(=O)c3ccc(-c4ccc(Cl)cc4)o3)cc21
pIC50 [1]: 5.34

Cc1ccnc(NC(=O)c2ccc(-c3ccc(Cl)cc3)o2)c1
pIC50 [1]: 6.02
inhibition at 1 µM [2]: 36%
inhibition at 10 µM [3]: 88%
inhibition at 1 µM [4]: 9%
inhibition at 10 µM [5]: 88%
inhibition [6]: 42%
inhibition [7]: 81%
inhibition [8]: 58%
inhibition [9]: 83%
inhibition [10]: 42%
inhibition [11]: 81%
inhibition [12]: 12%
inhibition [13]: 5%
inhibition at 1 µM [14]: 24%
pIC50 [15]: < 4.52

CN(C)C1CCN(C(=O)c2ccc(-c3ccc(Cl)cc3)o2)CC1
pIC50 [1]: 5.28

Cc1cccc(NC(=O)c2ccc(-c3ccc(OC(F)(F)F)cc3)o2)c1
pIC50 [1]: 6.54
inhibition at 0.3 µM [16]: 63%
inhibition at 0.1 µM [17]: 40%
inhibition at 0.3 µM [18]: 30%
inhibition at 0.1 µM [19]: 25%
inhibition [20]: 73%
inhibition [21]: 40%
inhibition [22]: 33%
inhibition [23]: 7%
inhibition [24]: 73%
inhibition [12]: 84%
inhibition [25]: 47%
inhibition at 1 µM [14]: 87%
inhibition at 0.1 µM [26]: 52%
pIC50 [15]: < 4.52

Cc1cccc(N/C(=N/C#N)c2ccc(-c3ccc(Cl)cc3)o2)c1
pIC50 [1]: 7.52
inhibition at 0.03 µM [27]: 71%
inhibition at 0.003 µM [28]: 51%
inhibition at 0.03 µM [29]: 45%
inhibition at 0.003 µM [30]: 22%
inhibition [31]: 99%
inhibition [21]: 76%
inhibition [32]: 94%
inhibition [23]: 46%
inhibition [33]: 99%
inhibition [34]: 76%
inhibition [35]: 94%
inhibition [36]: 91%
inhibition [37]: 24%
inhibition at 0.3 µM [38]: 69%
inhibition at 0.03 µM [39]: 32%
inhibition [40]: 70%
pIC50 [15]: < 4.52

CCOc1ccc(-c2ccc(C(=O)Nc3cccc(C)c3)o2)cc1
pIC50 [1]: 6.37

CN1CCOc2cc(NC(=O)c3ccc(-c4ccc(Cl)cc4)o3)ccc21
pIC50 [1]: 6.01

Cc1cccc(NC(=O)c2ccc(-c3ccc(Cl)cc3)o2)c1
pIC50 [1]: 6.32
solubility [41]: < 0.1 µg/mL
inhibition at 0.3 µM [16]: 60%
inhibition at 0.1 µM [17]: 37%
inhibition at 0.3 µM [18]: 18%
inhibition at 0.1 µM [19]: 3%
inhibition [42]: 77%
inhibition [31]: 68%
inhibition [43]: 67%
inhibition [32]: 61%
inhibition [44]: 77%
inhibition [33]: 68%
inhibition [45]: 54%
inhibition [12]: 33%
inhibition [46]: 61%
inhibition [13]: 17%
inhibition at 3 µM [47]: 51%
inhibition [48]: 41%
pIC50 [15]: 4.57

Cc1cccc(NC(=O)c2coc(-c3ccc(Cl)cc3)c2)c1
pIC50 [1]: 4.70

Cc1ccccc1CNC(=O)c1ccc(-c2ccc(Cl)cc2)o1
pIC50 [1]: 5.96
